{"source": "paper PMC3002932", "about": "(PLoS ONE, 2010)", "key": {"TZM-bl cells": {"test_system": "TZM-bl cells", "experiment": "Cell viability (CytoTox-Glo) in TZM-bl cells", "format": "cell-based", "settings": "Figure 8", "description": "Cell viability experiments were carried out using CytoTox-Glo™ Assay (Promega Corp., Madison, WI) and cytotoxicity was analyzed using an MTT-based cell proliferation kit (Boehringer Mannheim, Indianapolis, IN) Both tests were performed according to manufacturer's instructions. MTT is 3-(4,5-dimethylthiazol-2-yl)-2,5-diphenyltetrazolium bromide. Experiments utilizing vaginal epithelial cells (VECs) were carried out as previously described."}, "[1]": {"test_system": "gp41, gp120BAL and gp120LAV", "experiment": "SPR binding to viral glycoproteins (gp41, gp120BAL, gp120LAV)", "design": "species or system HIV-1", "procedure": "(§1) Surface plasmon resonance (SPR) studies were performed on a BIAcore 3000 system (BiaCore AB, Piscataway, NJ), using BIAcore CM5 sensor chips and HBS-EP running buffer (pH = 7.4) containing 10 mM HEPES, 150 mM NaCl, 3 mM EDTA, and 0.005% polysorbate 20. Proteins/peptides were immobilized on a CM5 sensor chip using the amine coupling method. The chip was activated by mixing 400 mM N-ethyl-N-(3-dimethylaminopropyl)-carbodiimide hydrochloride and 100 mM N-hydroxysuccinimide. Residual reactive groups on the chip surface were blocked using 1.0 M ethanolamine/HCl (pH = 8.5). The flow cell-1 chamber, which served as a control, lacked immobilized protein but was treated with N-ethyl-N-(3-dimethylaminopropyl)-carbodiimide hydrochloride, N-hydroxysuccinimide, and ethanolamine/HCl. Binding signals were corrected for nonspecific binding by subtracting the flow cell-1 signal. To regenerate chip surfaces, bound ligands were removed with 10 mM HCl. Data were analyzed with BIAevaluation 4.1 software (Biacore, Piscataway, NJ)."}, "[2]": {"experiment": "SDS-PAGE in non-reductive conditions", "format": "physicochemical", "settings": "inconclusive"}, "[3]": {"experiment": "CD analysis of secondary structure", "format": "physicochemical", "settings": "for disordered / turns / α-helix / β-sheet: Selcon", "description": "Peptide was scanned at 20 nm per minute in a 0.01 cm path-length cell at 25°C with a sample interval of 0.2 nm. The peptide concentration was determined by UV absorbance at 280 nm. After baseline correction, spectra were expressed as the Mean Residue Ellipticity [θ]MRE. Quantitative estimates of secondary structural contributions were made with Selcon using the spectral basis set for proteins in the Olis Global Works™ software package (Olis Inc., Bogart, GA)."}, "HIV-1 (BaL)": {"test_system": "HIV-1 (BaL)", "experiment": "p24^gag antigen release assay in PM1 cells", "format": "cell-based", "settings": "MOI = 10^−2, 0.078–5 µM, 37°C/5% CO2, p24 ELISA, day 5 represents peak infection", "description": "The cells were washed and resuspended in fresh growth media containing vehicle or peptides for 7 days. Supernatants were collected at days 3, 5, and 7 post-infection, and on days 3 and 5 the cells were resuspended in 1 ml of growth medium containing the appropriate concentration of vehicle or peptide. HIV-1 infection was quantified by measuring the amount of p24^gag in the cell supernatants (Perkin Elmer p24 ELISA, Waltham, MA)."}, "[4]": {"biological_target": "GRFN-1 (self-association)", "experiment": "SPR self-association of GRFN-1", "format": "binding", "settings": "BIAcore CM5 chip, HBS-EP pH = 7.4, KD±SEM, average from at least 5 independent experiments", "procedure": "as §1"}, "[5]": {"settings": "0.25 mM in 10 mM phosphate buffer pH = 6.5, 25°C"}, "[6]": {"settings": "0.5 mM in 10 mM phosphate buffer pH = 6.5, 25°C"}, "[7]": {"settings": "0.5 mM in HFIP:10 mM phosphate buffer pH = 6.5 (4∶6, v∶v), 25°C"}, "[8]": {"settings": "0.5 mM in TFE:10 mM phosphate buffer pH = 6.5 (4∶6, v∶v), 25°C"}}}
{"substance": "Cha-SC-Chg-R-Chg-RSGSY-Cha-DN-Chg-R-Chg-(D)Cys-CONH2 (disulfide) [GRFN-1]", "values": [{"measurement": "effect on viability", "setting": "TZM-bl cells", "result": "no effect on viability"}, {"measurement": "binding (in words)", "setting": "[1]", "result": "binds gp41, gp120BAL and gp120LAV in a dose dependent manner"}, {"measurement": "apparent size of dimers", "setting": "[2]", "result": "~4.5", "unit": "kDa"}, {"measurement": "disordered", "setting": "[3]; [5]", "result": 30.0, "unit": "%"}, {"measurement": "turns", "setting": "[3]; [5]", "result": 21.0, "unit": "%"}, {"measurement": "α-helix", "setting": "[3]; [5]", "result": 25.0, "unit": "%"}, {"measurement": "β-sheet", "setting": "[3]; [5]", "result": 24.0, "unit": "%"}, {"measurement": "disordered", "setting": "[3]; [6]", "result": 31.0, "unit": "%"}, {"measurement": "turns", "setting": "[3]; [6]", "result": 21.0, "unit": "%"}, {"measurement": "α-helix", "setting": "[3]; [6]", "result": 13.0, "unit": "%"}, {"measurement": "β-sheet", "setting": "[3]; [6]", "result": 35.0, "unit": "%"}, {"measurement": "disordered", "setting": "[3]; [7]", "result": 24.0, "unit": "%"}, {"measurement": "turns", "setting": "[3]; [7]", "result": 16.0, "unit": "%"}, {"measurement": "α-helix", "setting": "[3]; [7]", "result": 52.0, "unit": "%"}, {"measurement": "β-sheet", "setting": "[3]; [7]", "result": 8.0, "unit": "%"}, {"measurement": "disordered", "setting": "[3]; [8]", "result": 30.0, "unit": "%"}, {"measurement": "turns", "setting": "[3]; [8]", "result": 23.0, "unit": "%"}, {"measurement": "α-helix", "setting": "[3]; [8]", "result": 19.0, "unit": "%"}, {"measurement": "β-sheet", "setting": "[3]; [8]", "result": 28.0, "unit": "%"}, {"measurement": "secondary structure (in words)", "setting": "[3]; 10 mM phosphate buffer, pH = 6.5, 250 µM", "result": "almost equal proportions of α-helix, β-sheet, turn and disordered conformations"}, {"measurement": "secondary structure (in words)", "setting": "[3]; 10 mM phosphate buffer, pH = 6.5, 500 µM vs 250 µM", "result": "β-sheet structure increases at the expense of α-helix"}, {"measurement": "secondary structure (in words)", "setting": "[3]; HFIP:buffer", "result": "dominant helical conformation"}, {"measurement": "secondary structure (in words)", "setting": "[3]; TFE:buffer", "result": "mix of α-helix, β-sheet, turns"}, {"measurement": "concentration dependence of conformation", "setting": "[3]; TFE:buffer and HFIP:buffer, 50 to 500 µM (data not shown)", "result": "not concentration dependent"}, {"measurement": "EC50", "setting": "HIV-1 (BaL)", "result": "547 ± 66.1", "unit": "nM"}, {"measurement": "KD (self-association)", "setting": "[4]", "result": "500 ± 130", "unit": "nM"}]}
